Results on nine compounds are retold here after patent US20240261367A1, “CYCLIC PEPTIDE IMMUNOMODULATORS” (priority 2021, published 2024).

For the assay, the target named is T1, PD-1/PD-L1 (Homo sapiens, UniProt Q9NZQ7).
T1 construct: TVMV protease site linker (C); made in house; host or cells: HEK293T cells
T1 sequence (Q9NZQ7 18-239): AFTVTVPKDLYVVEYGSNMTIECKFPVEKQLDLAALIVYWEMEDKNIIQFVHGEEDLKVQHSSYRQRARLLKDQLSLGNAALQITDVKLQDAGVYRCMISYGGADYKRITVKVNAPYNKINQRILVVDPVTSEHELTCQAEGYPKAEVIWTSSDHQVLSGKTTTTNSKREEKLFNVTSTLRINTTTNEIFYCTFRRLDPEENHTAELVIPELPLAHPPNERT
Nature of the assay: PD-1/PD-L1 Homogenous Time-Resolved Fluorescence (HTRF) binding assay. As to conditions: PD-L1-His (10 nM) pre-incubated with inhibitor 15 m, then PD-1-Ig (20 nM). On the technique in general: Time-resolved FRET reads energy transfer from a long-lived donor to a nearby acceptor.
Consider `CCCC[C@H]1C(=O)N(C)[C@@H](CCCC)C(=O)N[C@@H](CC(C)C)C(=O)N[C@H](C(=O)NCC(=O)N[C@@H](Cc2cn(CCOCCOCCOCCOCCOCCOCCOCCOCCOCCOCCOCCNC(=O)CC[C@H](NC(=O)CCCCCCCCCCCCCCCCC(=O)OC)C(=O)OC)nn2)C(=O)O)CSCC(=O)N[C@@H](Cc2ccc(O)cc2)C(=O)N(C)[C@@H](C)C(=O)N[C@@H](CC(N)=O)C(=O)N2CCC[C@H]2C(=O)N[C@@H](CNC(=O)OCc2oc(=O)oc2C)C(=O)N[C@@H](CC(C)C)C(=O)N2C[C@H](O)C[C@H]2C(=O)N[C@@H](Cc2c[nH]c3ccccc23)C(=O)N[C@@H](CCN)C(=O)N[C@@H](Cc2cn(CC(=O)O)c3ccccc23)C(=O)N1C` [Example 7004], for which the IC50 (usually the midpoint of a concentration-inhibition curve) was determined as 6.9 nM.

As for `CCCC[C@H]1C(=O)N(C)[C@@H](CCCC)C(=O)N[C@@H](CC(C)C)C(=O)N[C@H](C(=O)NCC(=O)N[C@@H](Cc2cn(CCOCCOCCOCCOCCOCCOCCOCCOCCOCCOCCOCCNC(=O)CC[C@H](NC(=O)CCCCCCCCCCCCCCCCC(=O)O)C(=O)O)nn2)C(=O)O)CSCC(=O)N[C@@H](Cc2ccc(O)cc2)C(=O)N(C)[C@@H](C)C(=O)N[C@@H](CC(N)=O)C(=O)N2CCC[C@H]2C(=O)N[C@@H](CNC(=O)OC)C(=O)N[C@@H](CC(C)C)C(=O)N2C[C@H](O)C[C@H]2C(=O)N[C@@H](Cc2c[nH]c3ccccc23)C(=O)N[C@@H](CCNC(=O)OCc2oc(=O)oc2C)C(=O)N[C@@H](Cc2cn(CC(=O)O)c3ccccc23)C(=O)N1C` [Example 7005], the IC50 worked out at 12 nM.

For the compound `CCCC[C@H]1C(=O)N(C)[C@@H](CCCC)C(=O)N[C@@H](CC(C)C)C(=O)N[C@H](C(=O)NCC(=O)N[C@@H](Cc2cn(CCOCCOCCOCCOCCOCCOCCOCCOCCOCCOCCOCCNC(=O)CC[C@H](NC(=O)CCCCCCCCCCCCCCCCC(=O)O)C(=O)O)nn2)C(=O)O)CSCC(=O)N[C@@H](Cc2ccc(O)cc2)C(=O)N(C)[C@@H](C)C(=O)N[C@@H](CC(N)=O)C(=O)N2CCC[C@H]2C(=O)N[C@@H](CNC(=O)OCc2oc(=O)oc2C)C(=O)N[C@@H](CC(C)C)C(=O)N2C[C@H](O)C[C@H]2C(=O)N[C@@H](Cc2c[nH]c3ccccc23)C(=O)N[C@@H](CCNC(=O)OC)C(=O)N[C@@H](Cc2cn(CC(=O)O)c3ccccc23)C(=O)N1C` [Example 7006], the IC50 was found to be 43 nM.

Take `CCCC[C@H]1C(=O)N(C)[C@@H](CCCC)C(=O)N[C@@H](CC(C)C)C(=O)N[C@H](C(=O)NCC(=O)N[C@@H](Cc2cn(CCOCCOCCOCCOCCOCCOCCOCCOCCOCCOCCOCCNC(=O)CC[C@H](NC(=O)CCCCCCCCCCCCCCCCC(=O)O)C(=O)O)nn2)C(=O)O)CSCC(=O)N[C@@H](Cc2ccc(O)cc2)C(=O)N(C)[C@@H](C)C(=O)N[C@@H](CC(N)=O)C(=O)N2CCC[C@H]2C(=O)N[C@@H](CNC(=O)OCc2oc(=O)oc2C)C(=O)N[C@@H](CC(C)C)C(=O)N2C[C@H](O)C[C@H]2C(=O)N[C@@H](Cc2c[nH]c3ccccc23)C(=O)N[C@@H](CCNC(=O)OCC)C(=O)N[C@@H](Cc2cn(CC(=O)O)c3ccccc23)C(=O)N1C` [Example 7010]: the IC50 amounted to 46 nM.

`CCCC[C@H]1C(=O)N(C)[C@@H](CCCC)C(=O)N[C@@H](CC(C)C)C(=O)N[C@H](C(=O)NCC(=O)N[C@@H](Cc2cn(CCOCCOCCOCCOCCOCCOCCOCCOCCOCCOCCOCCNC(=O)CC[C@H](NC(=O)CCCCCCCCCCCCCCCCC(=O)O)C(=O)O)nn2)C(=O)O)CSCC(=O)N[C@@H](Cc2ccc(O)cc2)C(=O)N(C)[C@@H](C)C(=O)N[C@@H](CC(N)=O)C(=O)N2CCC[C@H]2C(=O)N[C@@H](CNC(=O)OC)C(=O)N[C@@H](CC(C)C)C(=O)N2C[C@H](O)C[C@H]2C(=O)N[C@@H](Cc2c[nH]c3ccccc23)C(=O)N[C@@H](CCNC(=O)OCC)C(=O)N[C@@H](Cc2cn(CC(=O)O)c3ccccc23)C(=O)N1C` [Example 7012] showed an IC50 of 8 nM.

`CCCC[C@H]1C(=O)N(C)[C@@H](CCCC)C(=O)N[C@@H](CC(C)C)C(=O)N[C@H](C(=O)NCC(=O)N[C@@H](Cc2cn(CCOCCOCCOCCOCCOCCOCCOCCOCCOCCOCCOCCNC(=O)CC[C@H](NC(=O)CCCCCCCCCCCCCCCCC(=O)O)C(=O)O)nn2)C(=O)O)CSCC(=O)N[C@@H](Cc2ccc(O)cc2)C(=O)N(C)[C@@H](C)C(=O)N[C@@H](CC(N)=O)C(=O)N2CCC[C@H]2C(=O)N[C@@H](CNC(=O)OCC)C(=O)N[C@@H](CC(C)C)C(=O)N2C[C@H](O)C[C@H]2C(=O)N[C@@H](Cc2c[nH]c3ccccc23)C(=O)N[C@@H](CCNC(=O)OC)C(=O)N[C@@H](Cc2cn(CC(=O)O)c3ccccc23)C(=O)N1C` [Example 7013] gave an IC50 of 49 nM.

The compound `CCCC[C@H]1C(=O)N(C)[C@@H](CCCC)C(=O)N[C@@H](CC(C)C)C(=O)N[C@H](C(=O)NCC(=O)N[C@@H](Cc2cn(CCOCCOCCOCCOCCOCCOCCOCCOCCOCCOCCOCCNC(=O)CC[C@H](NC(=O)CCCCCCCCCCCCCCCCC(=O)O)C(=O)O)nn2)C(=O)O)CSCC(=O)N[C@@H](Cc2ccc(O)cc2)C(=O)N(C)[C@@H](C)C(=O)N[C@@H](CC(N)=O)C(=O)N2CCC[C@H]2C(=O)N[C@@H](CNC(=O)OCC)C(=O)N[C@@H](CC(C)C)C(=O)N2C[C@H](O)C[C@H]2C(=O)N[C@@H](Cc2c[nH]c3ccccc23)C(=O)N[C@@H](CCNC(=O)OCc2oc(=O)oc2C)C(=O)N[C@@H](Cc2cn(CC(=O)O)c3ccccc23)C(=O)N1C` [Example 7014] registered an IC50 of 8.6 nM.

For the compound `CCCC[C@H]1C(=O)N(C)[C@@H](CCCC)C(=O)N[C@@H](CC(C)C)C(=O)N[C@H](C(=O)NCC(=O)N[C@@H](Cc2cn(CCOCCOCCOCCOCCOCCOCCOCCOCCOCCOCCOCCNC(=O)CC[C@H](NC(=O)CCCCCCCCCCCCCCCCC(=O)OCc3oc(=O)oc3C)C(=O)O)nn2)C(=O)O)CSCC(=O)N[C@@H](Cc2ccc(O)cc2)C(=O)N(C)[C@@H](C)C(=O)N[C@@H](CC(N)=O)C(=O)N2CCC[C@H]2C(=O)N[C@@H](CNC(=O)OCC)C(=O)N[C@@H](CC(C)C)C(=O)N2C[C@H](O)C[C@H]2C(=O)N[C@@H](Cc2c[nH]c3ccccc23)C(=O)N[C@@H](CCN)C(=O)N[C@@H](Cc2cn(CC(=O)O)c3ccccc23)C(=O)N1C` [Example 7016], the IC50 turned out to be 34 nM.

Take `CCCC[C@H]1C(=O)N(C)[C@@H](CCCC)C(=O)N[C@@H](CC(C)C)C(=O)N[C@H](C(=O)NCC(=O)N[C@@H](Cc2cn(CCOCCOCCOCCOCCOCCOCCOCCOCCOCCOCCOCCNC(=O)CC[C@H](NC(=O)CCCCCCCCCCCCCCCCC(=O)O)C(=O)O)nn2)C(=O)O)CSCC(=O)N[C@@H](Cc2ccc(O)cc2)C(=O)N(C)[C@@H](C)C(=O)N[C@@H](CC(N)=O)C(=O)N2CCC[C@H]2C(=O)N[C@@H](CNCC(O)C(O)C(O)C(O)C(O)CO)C(=O)N[C@@H](CC(C)C)C(=O)N2C[C@H](O)C[C@H]2C(=O)N[C@@H](Cc2c[nH]c3ccccc23)C(=O)N[C@@H](CCN)C(=O)N[C@@H](Cc2cn(CC(=O)O)c3ccccc23)C(=O)N1C` (stereo partly drawn) [Example 8001]: the IC50 amounted to 12 nM.
